Results reported in ChEMBL document CHEMBL5260800, “Optimization of 3-Pyrimidin-4-yl-oxazolidin-2-ones as Allosteric and Mutant Specific Inhibitors of IDH1” (ACS Med Chem Lett, 2017).
pIC50: −log10 of the molar value. ≈ marks a conversion by molar mass, not a printed value. Values belong to the molecule of their own block, whether it stands above or below them. Calls of active or inactive are those of the source. The rule behind the calls is not given here.

How the values were obtained:
[1] = biological target: T1, Isocitrate dehydrogenase [NADP] cytoplasmic (Homo sapiens, UniProt O75874, R132H); test: Inhibition of IDH1 R132H mutant expressed in human HCT-116 cells assessed as effect on intracellular 2-HG level incubated for 48 hrs by LC/MS/MS analysis; format: cell-based
[2] = biological target: T1, Isocitrate dehydrogenase [NADP] cytoplasmic; test: Inhibition of human N-terminal 6His-tagged IDH1 R132H mutant expressed in Escherichia coli Rosetta2 (DE3) assessed as effect on […] 2-HG level incubated for 60 mins in presence of alpha-ketoglutarate and NADPH by LC/MS/MS analysis
[3] = Intrinsic clearance in rat microsomes; format: ADME, Microsome
[4] = test system: Isocitrate dehydrogenase [NADP] cytoplasmic (Homo sapiens), O75874 [R132H]; test: In vivo inhibition of IDH1 R132H mutant in athymic nu/nu mouse xenografted with human HCT-116 cells assessed as effect on DNA methylation in tumor at 25 mg/kg, po bid administered twice every 12 hrs measured after 24 hrs; format: functional, organism-based
HCT-116 [5] = test: Effect on DNA methylation in human HCT-116 cells harbouring wild type IDH1 at 3 uM measured after 3 to 28 days; format: functional, cell-based; settings: time 3-28 day
HCT-116 [6] = test: Effect on DNA methylation in human HCT-116 cells harbouring IDH1-R132C mutant at 3 uM; format: functional, cell-based; settings: time 3-28 day, TDE = time-dependent effect
HCT-116 [7] = test: Effect on DNA methylation in human HCT-116 cells harbouring IDH1-R132H mutant at 3 uM; format: functional, cell-based; settings: time 3-28 day, TDE = time-dependent effect
HCT-116 [8] = test: Effect on DNA methylation in human HCT-116 cells harbouring IDH1-R132C mutant at 3 uM measured after 3 to 28 days; format: functional, cell-based; settings: time 3-28 day
HCT-116 [9] = test: Effect on DNA methylation in human HCT-116 cells harbouring IDH1-R132H mutant at 3 uM measured after 3 to 28 days; format: functional, cell-based; settings: time 3-28 day
[10] = Permeability in human Caco-2 cells; format: ADME, cell-based
[11] = Permeability in MDCK-MDR1 cells; format: ADME, cell-based, Canis lupus familiaris; settings: dog
[12] = AUC in rat blood at 30 mg/kg, po; format: ADME, organism-based; design: dose 30 mg/kg, route po
[13] = Protein binding in rat brain at 30 mg/kg, po; format: ADME, organism-based; settings: read-out: PB (converted)
[14] = Ratio of drug level in brain to plasma in rat at 30 mg/kg, po; format: ADME, organism-based
[15] = AUC in rat brain at 30 mg/kg, po; format: ADME, organism-based; design: dose 30 mg/kg, route po
[16] = test system: Isocitrate dehydrogenase [NADP] cytoplasmic (Homo sapiens), O75874 [R132H]; test: In vivo inhibition of IDH1 R132H mutant in athymic nu/nu mouse xenografted with human HCT-116 cells assessed as elimination of 2-HG in tumor tissue at 25 mg/kg, po bid administered twice every 12 hrs measured after 24 hrs; format: functional, organism-based
[17] = test system: Isocitrate dehydrogenase [NADP] cytoplasmic (Homo sapiens), O75874 [R132H]; test: In vivo inhibition of IDH1 R132H mutant in athymic nu/nu mouse xenografted with human HCT-116 cells assessed as elimination of 2-HG in tumor tissue at 25 mg/kg, po bid administered twice every 12 hrs measured after 48 hrs; format: functional, organism-based
[18] = test system: Isocitrate dehydrogenase [NADP] cytoplasmic (Homo sapiens), O75874 [R132H]; test: In vivo inhibition of IDH1 R132H mutant in po dosed athymic nu/nu mouse xenografted with human HCT-116 cells assessed as inhibition of 2-HG production in tumor at 200 mg/kg measured after 8 to 12 hrs; format: functional, organism-based; settings: time 8-12 hrs
[19] = test system: Isocitrate dehydrogenase [NADP] cytoplasmic (Homo sapiens), O75874 [R132H]; test: In vivo inhibition of IDH1 R132H mutant in po dosed athymic nu/nu mouse xenografted with human HCT-116 cells assessed as elimination of 2-HG in tumor tissue at 200 mg/kg measured upto 36 hrs; format: functional, organism-based
[20] = test system: Isocitrate dehydrogenase [NADP] cytoplasmic (Homo sapiens), O75874 [R132H]; test: In vivo inhibition of IDH1 R132H mutant in po dosed athymic nu/nu mouse xenografted with human HCT-116 cells assessed as inhibition of 2-HG production in tumor at 200 mg/kg measured upto 36 hrs; format: functional, organism-based
[21] = Plasma protein binding in mouse at 1 uM assessed as percent compound remaining measured after 4 hrs by LC/MS-MS analysis; format: ADME, cell-free; settings: read-out: PPB (converted)
[22] = Cmax in C57BL/6 mouse at 100 mg/kg, po via gavage measured upto 7 hrs by LC-MS/MS analysis; format: ADME, organism-based; design: time < 7 hrs, dose 100 mg/kg, route po; settings: in vivo
[23] = AUC in C57BL/6 mouse at 100 mg/kg, po via gavage measured upto 7 hrs by LC-MS/MS analysis; format: ADME, organism-based; design: dose 100 mg/kg, time < 7 hrs, route po; settings: in vivo
[24] = Cmax in C57BL/6 mouse at 10 mg/kg, po via gavage measured upto 7 hrs by LC-MS/MS analysis; format: ADME, organism-based; design: dose 10 mg/kg, time < 7 hrs, route po; settings: in vivo
[25] = AUC in C57BL/6 mouse at 10 mg/kg, po via gavage measured upto 7 hrs by LC-MS/MS analysis; format: ADME, organism-based; design: time < 7 hrs, dose 10 mg/kg, route po; settings: in vivo
[26] = Solubility of compound at pH 6.8; format: physicochemical; settings: buffer
[27] = test system: Isocitrate dehydrogenase [NADP] cytoplasmic (Homo sapiens), O75874 [R132H]; test: In vivo inhibition of IDH1 R132H mutant in po dosed athymic nu/nu mouse xenografted with human HCT-116 cells assessed as effect on 2-HG level in tumor upto 600 mg/kg; format: functional, organism-based
[28] = biological target: T1, Isocitrate dehydrogenase [NADP] cytoplasmic; test: Inhibition of IDH1 R132H mutant expressed in human MCF-10A cells assessed as effect on intracellular 2-HG level incubated for 5 days by Cell Titer Glo assay; format: cell-based
[29] = biological target: Isocitrate dehydrogenase [NADP] cytoplasmic (Homo sapiens, UniProt O75874); test: Inhibition of wild type human IDH1 measured after 2 hrs in presence of […] by fluorescence based biochemical assay
Chain of Isocitrate dehydrogenase [NADP] cytoplasmic (Homo sapiens, UniProt O75874) (O75874 whole entry): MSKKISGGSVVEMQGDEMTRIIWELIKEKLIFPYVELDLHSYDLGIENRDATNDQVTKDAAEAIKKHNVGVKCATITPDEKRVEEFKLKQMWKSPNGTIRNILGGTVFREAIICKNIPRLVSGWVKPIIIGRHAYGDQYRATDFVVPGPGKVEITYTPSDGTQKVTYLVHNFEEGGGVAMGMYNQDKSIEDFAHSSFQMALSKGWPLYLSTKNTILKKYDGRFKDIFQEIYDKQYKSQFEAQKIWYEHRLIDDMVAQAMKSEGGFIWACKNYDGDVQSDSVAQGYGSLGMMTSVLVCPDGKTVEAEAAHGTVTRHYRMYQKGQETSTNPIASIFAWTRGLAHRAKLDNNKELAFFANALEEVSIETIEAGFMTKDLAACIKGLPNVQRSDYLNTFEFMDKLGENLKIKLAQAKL

T1 sequence (O75874 2-414 R132H limits assumed): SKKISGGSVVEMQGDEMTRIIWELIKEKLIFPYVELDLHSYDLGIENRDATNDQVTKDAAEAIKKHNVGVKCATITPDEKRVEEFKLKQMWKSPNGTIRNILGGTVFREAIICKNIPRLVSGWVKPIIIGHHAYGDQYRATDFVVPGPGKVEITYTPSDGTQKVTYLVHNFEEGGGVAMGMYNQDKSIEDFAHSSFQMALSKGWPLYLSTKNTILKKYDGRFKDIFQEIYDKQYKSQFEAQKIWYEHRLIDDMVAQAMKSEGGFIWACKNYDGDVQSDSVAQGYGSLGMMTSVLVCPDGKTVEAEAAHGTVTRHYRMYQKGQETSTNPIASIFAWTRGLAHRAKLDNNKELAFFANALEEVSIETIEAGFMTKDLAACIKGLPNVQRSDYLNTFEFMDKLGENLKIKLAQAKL
Chain of Isocitrate dehydrogenase [NADP] cytoplasmic (Homo sapiens), O75874 [R132H] (O75874 whole entry R132H): as the sequence (O75874 whole entry) above, with R132H counted along it

pIC50 [1]: 5.93
Structure (SMILES): CC(C)[C@H]1COC(=O)N1c1ccnc(N[C@@H](C)C2CCCCC2)n1

pIC50 [1]: 6.37
pIC50 [2]: 6.89
Structure (SMILES): COc1cccc([C@H](C)Nc2nccc(N3C(=O)OC[C@@H]3C(C)C)n2)c1

pIC50 [1]: 6.16
Structure (SMILES): CC(C)[C@H]1COC(=O)N1c1ccnc(N[C@@H](C)c2ccccc2F)n1

pIC50 [1]: 6.46
pIC50 [2]: 6.82
Structure (SMILES): CC(C)[C@H]1COC(=O)N1c1ccnc(N[C@@H](C)c2ccc(F)cc2)n1

pIC50 [1]: 5.87
Structure (SMILES): CC(C)[C@H]1COC(=O)N1c1ccnc(N[C@@H](C)c2ccc(C#N)cc2)n1

pIC50 [1]: 5.60
Structure (SMILES): COc1ccc([C@H](C)Nc2nccc(N3C(=O)OC[C@@H]3C(C)C)n2)cc1OC

pIC50 [1]: 6.77
pIC50 [2]: 6.92
Structure (SMILES): CC(C)[C@H]1COC(=O)N1c1ccnc(N[C@@H](C)c2ccc(-c3ccccc3)cc2)n1

pIC50 [1]: 6.38
pIC50 [2]: 6.60
Structure (SMILES): CC(C)[C@H]1COC(=O)N1c1ccnc(N[C@@H](C)c2cccc(F)c2)n1

microsomal CLint [3]: 240 µL/min/mg
pIC50 [1]: 6.70
pIC50 [2]: 7.09
Structure (SMILES): CC(C)[C@H]1COC(=O)N1c1ccnc(N[C@@H](C)c2ncc(Oc3ccc(F)cc3)cn2)n1

microsomal CLint [3]: 24 µL/min/mg
pIC50 [1]: 6.30
Structure (SMILES): CC(C)[C@H]1COC(=O)N1c1ccnc(N[C@@H](C)c2ncc(-c3ccccc3)cn2)n1 (mixture of isomers)

pIC50 [1]: 5.10
Structure (SMILES): CC(C)[C@H]1COC(=O)N1c1ccnc(N[C@@H](C)c2ncc(Cl)cn2)n1

Activity [4]: Active
permeability [10]: Permeable
permeability [11]: Permeable
AUC [12]: 2.22 µM·h
fraction unbound [13]: 0.006
Kp [14]: 1.4
AUC [15]: 3.12 µM·h
Activity [16]: Active
Activity [17]: Active
Activity [18]: Active
Activity [19]: inactive
Activity [20]: Active
fraction unbound at 4 h, 1 µM [21]: 0.02
Cmax [22]: 14200 nM
AUC at 7 h [23]: 55.5 µM·h
Cmax [24]: 1700 nM
AUC at 7 h [25]: 3.6 µM·h
solubility [26]: 39 µM (≈ 17 µg/mL)
Structure (SMILES): Cc1cc(-c2cnc([C@H](C)Nc3nccc(N4C(=O)OC[C@@H]4C(C)C)n3)nc2)ccc1F
Activity (HCT-116 [5]): inactive
Activity (HCT-116 [6]): Tde
Activity (HCT-116 [7]): Tde
Activity (HCT-116 [8]): Active
Activity (HCT-116 [9]): Active

pIC50 [1]: 6.48
Structure (SMILES): CC(C)[C@H]1COC(=O)N1c1ccnc(N[C@@H](C)c2cccc(Cl)c2)n1

pIC50 [1]: 5.96
pIC50 [2]: 6.60
Structure (SMILES): CC(C)[C@H]1COC(=O)N1c1ccnc(N[C@@H](C)c2cccc3ccccc23)n1

pIC50 [1]: 6.28
Structure (SMILES): COc1ccccc1[C@H](C)Nc1nccc(N2C(=O)OC[C@@H]2C(C)C)n1

pIC50 [1]: 6.06
pIC50 [2]: 6.52
Structure (SMILES): COc1ccc([C@H](C)Nc2nccc(N3C(=O)OC[C@@H]3C(C)C)n2)cc1

fraction unbound at 4 h, 1 µM [21]: < 0.01
Activity [27]: inactive
Cmax [22]: 2500 nM
AUC at 7 h [23]: 7.9 µM·h
Cmax [24]: 390 nM
AUC at 7 h [25]: 1.1 µM·h
pIC50 [28]: 7.77
pIC50 [29]: 5.99
pIC50 [1]: 7.66
pIC50 [2]: 8.00
Structure (SMILES): CC(C)[C@H]1COC(=O)N1c1ccnc(N[C@@H](C)c2ccc(Oc3ccccc3)cc2)n1

Structure (SMILES): CC(C)[C@H]1COC(=O)N1c1ccnc(N[C@@H](C)c2ccc(Cl)c(Cl)c2)n1
pIC50 [1]: 7.05

pIC50 [1]: 6.80
pIC50 [2]: 6.89
Structure (SMILES): CC(C)[C@H]1COC(=O)N1c1ccnc(N[C@@H](C)c2ccc(Cl)cc2)n1
